Measurements taken from ChEMBL document CHEMBL4834420, “Projected Dose Optimization of Amino- and Hydroxypyrrolidine Purine PI3Kδ Immunomodulators” (J Med Chem, 2021).

What was measured:
[1] = Volume of distribution in Wistar Han rat; format: ADME; details: in vivo
[2] = Volume of distribution in Beagle dog; format: ADME, Canis lupus familiaris; details: in vivo
[3] = Half-life in Wistar Han rat; format: ADME; details: in vivo
[4] = Inhibition of adenosine transporter in human HeLa cells assessed as reduction in [3H]adenosine uptake preincubated for 30 mins followed by [3H]adenosine addition and measured after 60 mins; format: cell-based
[5] = Plasma clearance in Wistar Han rat at 0.5 mg/kg, iv or 1 mg/kg, po; format: ADME, organism-based
[6] = biological target: PI3-kinase p110-delta/p85-alpha (Homo sapiens, UniProt O00329); experiment: Inhibition of N-terminal His6-tagged recombinant full length human p110delta/untagged recombinant full length human p85alpha expressed in baculovirus infected Sf21 insect cells using PIP2 as substrate preincubated for 15 mins followed by substrate addition and measured after 1 hr by HTRF assay
Sequence of PI3-kinase p110-delta/p85-alpha (P27986 whole entry, one chain of several, canonical isoform): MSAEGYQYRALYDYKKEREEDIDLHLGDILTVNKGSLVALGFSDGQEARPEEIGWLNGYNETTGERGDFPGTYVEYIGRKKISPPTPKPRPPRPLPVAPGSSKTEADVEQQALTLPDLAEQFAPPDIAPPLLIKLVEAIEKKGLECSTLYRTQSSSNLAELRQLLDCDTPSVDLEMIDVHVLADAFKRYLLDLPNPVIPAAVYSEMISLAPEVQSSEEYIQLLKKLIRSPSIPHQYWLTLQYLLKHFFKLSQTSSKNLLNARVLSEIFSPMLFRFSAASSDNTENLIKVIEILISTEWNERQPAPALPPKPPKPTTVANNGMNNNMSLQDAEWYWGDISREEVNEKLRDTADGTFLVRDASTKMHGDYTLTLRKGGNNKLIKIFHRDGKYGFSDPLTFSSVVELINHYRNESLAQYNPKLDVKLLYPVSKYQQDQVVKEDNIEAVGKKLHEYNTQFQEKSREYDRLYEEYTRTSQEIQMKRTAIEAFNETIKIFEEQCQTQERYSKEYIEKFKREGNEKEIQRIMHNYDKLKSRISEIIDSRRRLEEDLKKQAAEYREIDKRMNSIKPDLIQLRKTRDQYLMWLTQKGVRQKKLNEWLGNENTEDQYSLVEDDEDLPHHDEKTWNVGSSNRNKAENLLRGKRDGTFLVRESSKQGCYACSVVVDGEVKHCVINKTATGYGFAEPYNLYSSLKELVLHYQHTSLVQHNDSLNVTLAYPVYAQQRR

[7] = biological target: T1, Phosphatidylinositol 4,5-bisphosphate 3-kinase catalytic subunit delta isoform (Homo sapiens, UniProt O00329); experiment: Inhibition of PI3Kdelta in human Ramos cells assessed as reduction in anti-IgM-antibody-induced phosphorylation of AKT at Ser473 residue preincubated for 20 mins followed by anti-IgM antibody stimulation and measured after 30 mins by alphascreen assay; format: cell-based
T1 sequence (O00329 whole entry): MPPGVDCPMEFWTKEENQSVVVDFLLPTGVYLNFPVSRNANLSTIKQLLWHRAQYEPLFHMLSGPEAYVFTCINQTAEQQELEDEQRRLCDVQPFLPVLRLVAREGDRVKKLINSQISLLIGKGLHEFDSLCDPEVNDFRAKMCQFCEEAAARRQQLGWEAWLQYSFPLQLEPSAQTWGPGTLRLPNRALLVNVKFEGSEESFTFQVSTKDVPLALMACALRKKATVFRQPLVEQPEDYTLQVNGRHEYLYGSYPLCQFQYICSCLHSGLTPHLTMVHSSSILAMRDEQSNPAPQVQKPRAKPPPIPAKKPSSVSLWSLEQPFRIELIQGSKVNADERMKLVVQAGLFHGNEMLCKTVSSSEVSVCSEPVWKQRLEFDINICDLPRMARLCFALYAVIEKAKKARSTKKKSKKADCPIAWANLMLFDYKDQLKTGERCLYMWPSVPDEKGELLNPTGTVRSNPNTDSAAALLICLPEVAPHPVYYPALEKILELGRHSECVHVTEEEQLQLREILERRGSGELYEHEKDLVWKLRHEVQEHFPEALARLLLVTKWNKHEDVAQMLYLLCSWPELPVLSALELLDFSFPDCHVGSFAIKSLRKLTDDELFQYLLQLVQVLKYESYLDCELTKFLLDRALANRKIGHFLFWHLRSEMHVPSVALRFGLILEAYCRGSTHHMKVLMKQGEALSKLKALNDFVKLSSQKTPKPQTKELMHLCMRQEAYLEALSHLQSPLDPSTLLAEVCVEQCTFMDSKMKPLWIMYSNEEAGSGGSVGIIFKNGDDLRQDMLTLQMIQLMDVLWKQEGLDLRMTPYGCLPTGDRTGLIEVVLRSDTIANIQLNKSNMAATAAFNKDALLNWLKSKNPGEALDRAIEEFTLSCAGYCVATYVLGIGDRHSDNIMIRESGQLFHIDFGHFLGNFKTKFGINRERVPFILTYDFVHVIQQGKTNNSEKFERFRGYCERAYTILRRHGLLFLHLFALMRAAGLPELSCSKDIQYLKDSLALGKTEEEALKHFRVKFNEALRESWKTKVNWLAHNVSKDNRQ

[8] = Plasma clearance in Beagle dog at 0.05 mg/kg; format: ADME, organism-based, Canis lupus familiaris
[9] = Oral bioavailability in Wistar Han rat; format: ADME, organism-based; details: in vivo
[10] = Lipophilicity, log D of the compound by HPLC analysis; format: physicochemical
[11] = Unbound volume of distribution in Beagle dog; format: ADME, Canis lupus familiaris; details: in vivo
[12] = Intrinsic clearance in Beagle dog at 0.05 mg/kg; format: ADME, organism-based, Canis lupus familiaris; details: in vivo
[13] = Half-life in Beagle dog; format: ADME, Canis lupus familiaris; details: in vivo
[14] = Unbound volume of distribution in Wistar Han rat; format: ADME; details: in vivo
[15] = Intrinsic clearance in Wistar Han rat at 0.5 mg/kg, iv or 1 mg/kg, po; format: ADME, organism-based; details: in vivo
[16] = biological target: T1, Phosphatidylinositol 4,5-bisphosphate 3-kinase catalytic subunit delta isoform; experiment: Inhibition of PI3Kdelta in human whole blood assessed as reduction in anti-CD79b antibody-induced CD69 expression preincubated for 60 mins followed by anti-CD79b antibody stimulation and measured after 3 hrs by FACS analysis; format: tissue-based
[17] = Oral bioavailability in Beagle dog; format: ADME, organism-based, Canis lupus familiaris; details: in vivo
[18] = Intrinsic clearance in Beagle dog at 0.25 mg/kg, iv or 0.5 mg/kg, po; format: ADME, organism-based, Canis lupus familiaris; details: in vivo
[19] = Plasma clearance in Beagle dog at 0.25 mg/kg, iv or 0.5 mg/kg, po; format: ADME, organism-based, Canis lupus familiaris
[20] = Apparent permeability in pig LLC-PK1 cells; format: ADME, cell-based, Sus scrofa

SMILES	Vd [1] [L/kg]	Vd [2] [L/kg]	half-life [3] [h]	IC50 [4] [µM]	clearance [5] [L/h/kg]	IC50 [6] [µM]	IC50 [7] [µM]	clearance [8] [L/h/kg]	bioavailability [9] [%]	logD [10]	Vdu [11] [L/kg]	CL [12] [L/h/kg]	half-life [13] [h]	Vdu [14] [L/kg]	CL [15] [L/h/kg]	IC50 [16] [µM]	bioavailability [17] [%]	CL [18] [L/h/kg]	clearance [19] [L/h/kg]	Papp [20] [nm/s]
CCn1c(-c2cnc(C)nc2)nc2c(O[C@H]3CCN(C(=O)C4CCOCC4)C3)ncnc21	0.8	0.8	1.4	> 10	0.84	0.013	0.39	0.258	31	0.8	1.1	0.42	1.9	1.5	2.22	–	–	–	–	–
CCn1c(-c2ccc(C(F)(F)F)nc2)nc2c(N[C@H]3CCN(C(=O)C4CC4)C3)ncnc21	0.4	1.2	1.2	1.2	0.282	0.0017	0.012	0.336	36	2	3.9	1.32	3.1	8.8	6.24	–	–	–	–	–
CCn1c(-c2cnc(C)nc2)nc2c(N[C@H]3CCN(C(=O)[C@H]4C[C@@H](OC)C4)C3)ncnc21	1.5	1.5	2.3	6.1	0.414	0.0008	0.034	–	52	0.9	2	–	4.3	4.1	4.86	0.026	85	0.78	0.426	100
CCn1c(-c2cnc(C)nc2)nc2c(O[C@H]3CCN(C(=O)[C@H]4C[C@@H](OC)C4)C3)ncnc21	0.5	0.6	1.8	> 10	0.228	0.0028	0.11	–	37	1	0.9	–	3.6	2.5	1.14	0.075	80	0.198	0.126	180
CCn1c(-c2cnc(C)nc2)nc2c(N[C@H]3CCN(C(=O)C4CCC4)C3)ncnc21	0.5	1.3	0.6	1.2	0.78	0.0004	0.004	–	74	1.2	2.3	–	1.3	9.2	19.2	0.014	84	1.8	0.66	320
CCn1c(-c2ccc(C(F)(F)F)nc2)nc2c(O[C@H]3CCN(C(=O)C4CCOC4)C3)ncnc21 (stereo partly specified)	0.2	0.9	2.3	3.2	0.072	0.0041	0.11	–	58	1.9	1.6	–	3.6	3.6	1.14	0.1	100	0.36	0.204	270
CCC(=O)N1CC[C@H](Nc2ncnc3c2nc(-c2cnc(C)nc2)n3CC)C1	1	1.5	1.5	> 10	1.26	0.0019	0.042	0.33	61	0.7	1.9	0.54	2.7	3.6	6	–	–	–	–	210
CCn1c(-c2ccc(C(F)(F)F)nc2)nc2c(O[C@H]3CCN(C(=O)c4cocn4)C3)ncnc21	0.3	1.2	6	4.4	0.078	0.0075	0.3	–	100	2	3.4	–	2.5	2.6	0.78	0.38	100	1.14	0.336	290
CCn1c(-c2cnc(C)nc2)nc2c(O[C@H]3CCN(C(=O)N4CC(OC)C4)C3)ncnc21	0.4	1.4	1.7	8.7	0.24	0.0033	0.063	0.72	75	0.9	2.3	1.92	1.2	2.1	1.5	–	–	–	–	–
